Measured values from US12285431B2, “Treatment of Rb-negative tumors using topoisomerase inhibitors in combination with cyclin dependent kinase 4/6 inhibitors” (G1 Therapeutics, Inc., priority 2014, dated 2025).

Tests used:
HS68 cells = assay: G1 arrest (cellular G1 and S-phase) assay, propidium iodide flow cytometry; type: cell-based, human
Protocol: HS68 cells (human skin fibroblast cell line (Rb-positive)) were stained with propidium iodide staining solution and run on Dako Cyan Flow Cytometer. The fraction of cells in G0-G1 DNA cell cycle versus the fraction in S-phase DNA cell cycle was determined using FlowJo 7.2.2 analysis.
The compounds listed in Table 1 were tested for their ability to arrest HS68 cells at the G1 phase of the cell cycle.

[1] = tested on: A2058 (human metastatic melanoma cells, Rb-negative); assay: Cellular proliferation assay (CellTiter-Glo), A2058; type: cell-based; conditions: A2058, 144 h, cell viability after six days
Protocol: (§1) Further cellular proliferation assays were conducted using the following cancer cell lines: MCF7 (breast adenocarcinoma—Rb-positive), ZR-75-1 (breast ductal carcinoma—Rb-positive), H69 (human small cell lung cancer—Rb-negative) cells, or A2058 (human metastatic melanoma cells—Rb-negative). These cells were seeded in Costar (Tewksbury, Massachusetts) 3093 96 well tissue culture treated white walled/clear bottom plates. Cells were treated with the compounds of Table 1 as nine point dose response dilution series from 10 uM to 1 nM. Cells were exposed to compounds and then cell viability was determined after either four (H69) or six (MCF7, ZR75-1, A2058) days as indicated using the CellTiter-Glo® luminescent cell viability assay (CTG; Promega, Madison, Wisconsin, United States of America) following the manufacturer's recommendations. Plates were read on BioTek (Winooski, Vermont) Syngergy2 multi-mode plate reader. The Relative Light Units (RLU) were plotted as a result of variable molar concentration and data was analyzed using Graphpad (LaJolla, California) Prism 5 statistical software to determine the EC50 for each compound.

[2] = tested on: ZR-75-1 (breast ductal carcinoma, Rb-positive); assay: Cellular proliferation assay (CellTiter-Glo), ZR-75-1; type: cell-based; conditions: Homo sapiens, ZR-75-1, 144 h, cell viability after six days, read-out: ZR75-1 Cellular EC50
Protocol: as §1

[3] = Mouse pharmacokinetics (oral gavage / intravenous); type: in vivo, mice; conditions: for AUC 0-inf (uM * h) i.v.: 10 mg/kg intravenous injection; for AUC (uM * h) p.o. / Cmax / Tmax (h) p.o. / t1/2 (h) p.o.: 30 mg/kg oral gavage
[4] = tested on: H69 (human small cell lung cancer, Rb-negative) cells; assay: Cellular proliferation assay (CellTiter-Glo), H69; type: cell-based; conditions: NCI-H69, 96 h, cell viability after four days
Protocol: as §1

[5] = tested on: MCF7 (breast adenocarcinoma, Rb-positive); assay: Cellular proliferation assay (CellTiter-Glo), MCF7; type: cell-based; conditions: Homo sapiens, MCF7, 144 h, cell viability after six days
Protocol: as §1

[6] = tested on: small cell lung cancer cell lines; conditions: Hamilton et al., cited from earlier work; for cytotoxic / chemosensitizing effect in combination with various camptothecin derivatives (in words): Molecules (2014), rubitecan, 9AC, topotecan, SN38, CPT109; for cytotoxic effect in combination with topotecan (in words): Journal of Cancer Therapy (2013)
CDK2/CyclinE = CDK2/CyclinE (Homo sapiens, UniProt P24941); assay: CDK2/cyclinE kinase assay (Nanosyn, Caliper); type: biochemical; conditions: Table 2
CDK4/CyclinD1 = CDK4/CyclinD1 (Homo sapiens, UniProt P11802); assay: CDK4/cyclinD1 kinase assay (Nanosyn, Caliper microfluidic kinase detection); type: biochemical; conditions: read-out: CDK4/CycD1 IC50
Sequence of CDK4/CyclinD1 (P11802 whole entry, species assumed): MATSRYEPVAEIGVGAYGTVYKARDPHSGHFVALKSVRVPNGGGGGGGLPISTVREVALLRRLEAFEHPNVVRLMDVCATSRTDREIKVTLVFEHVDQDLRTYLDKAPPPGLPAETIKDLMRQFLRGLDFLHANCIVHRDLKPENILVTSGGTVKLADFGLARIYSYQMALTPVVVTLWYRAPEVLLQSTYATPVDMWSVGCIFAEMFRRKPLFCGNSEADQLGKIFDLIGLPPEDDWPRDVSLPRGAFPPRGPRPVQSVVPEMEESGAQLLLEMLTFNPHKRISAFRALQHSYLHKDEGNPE
Sequence of CDK4/CyclinD1 (P24385 whole entry partner, species assumed): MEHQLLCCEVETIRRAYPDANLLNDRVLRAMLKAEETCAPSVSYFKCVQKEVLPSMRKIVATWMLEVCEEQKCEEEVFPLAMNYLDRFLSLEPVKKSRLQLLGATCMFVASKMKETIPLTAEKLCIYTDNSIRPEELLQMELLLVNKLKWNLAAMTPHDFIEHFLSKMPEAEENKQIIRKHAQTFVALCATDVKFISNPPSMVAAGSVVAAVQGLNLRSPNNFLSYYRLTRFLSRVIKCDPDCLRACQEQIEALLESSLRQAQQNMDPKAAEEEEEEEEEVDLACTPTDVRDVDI
Protocol: The assays were performed using microfluidic kinase detection technology (Caliper Assay Platform). The compounds were tested in 12-point dose-response format in singlicate at Km for ATP. Phosphoacceptor substrate peptide concentration used was 1 μM for all assays and Staurosporine was used as the reference compound for all assays. Specifics of each assay are as described below:
CDK4/CyclinD1: Enzyme concentration: 1 nM; ATP concentration: 200 μM; Incubation time: 10 hr.

[7] = tested on: NCI-H69 SCLC xenograft (Rb-negative); type: in vivo
Text: An Rb-negative model of small cell lung cancer was used in the following example. Briefly, xenografts of National Cancer Institute (NCI) […] cells were grafted onto the mice (Athymic Nude (Crl:NU(NCr)-Foxn1^nu); 6-12 week old females) using the South Texas Accelerated Research Therapeutics (START) Cell-Based Xenograft (START-CBX) tumor model. H69 cells are human small cell lung cancer cells and are Rb-negative.
Data collected from the efficacy study included animal weights, observations and tumor dimensions. This information was used to determine agent tolerability based on weight change and gross physiologic changes and anticancer activity based on tumor growth delay or regression. The designated endpoint for this study was an individual tumor volume of 1 cm^3 or 60 days following treatment initiation.
Tumor fragments from NCI-H69 were harvested from host animals and implanted into immune-deficient mice and the study initiated at a mean tumor volume of approximately 150-250 mm^3.
Additional details of the study are outlined in Table 6 below. […] Tumor size was examined twice per week and the endpoint for this study was Day 59.

[8] = Group 6: Compound T vehicle and topotecan 0.6 mg/kg IP qdx5x4

## O=C1NCC2(CCCCC2)n2c1cc1cnc(Nc3ccc(N4CCNCC4)cn3)nc12 [Compound Q]
HS68 cells; Homo sapiens, Hs68, HS68 cells
  EC50: 100 nM
[1]
  EC50: 2610 nM
[2]
  EC50: 35 nM
[3]
  AUC 0-inf (uM * h) i.v.: 0.95 µM·h
  AUC (uM * h) p.o.: 0.15 µM·h
  Cmax: 0.16 µM
  Tmax (h) p.o.: 0.5 h
  t1/2 (h) p.o.: 0.8 h
[4]
  EC50: > 3000 nM
[5]
  EC50: 49 nM

## O=C1NCC2(CCCCC2)n2c1cc1cnc(Nc3ccc(N4CCC(N5CCOCC5)CC4)cn3)nc12 [Compound U]
HS68 cells; Homo sapiens, Hs68, HS68 cells
  EC50: 25 nM
[1]
  EC50: > 3000 nM
[2]
  EC50: 59 nM
[3]
  AUC 0-inf (uM * h) i.v.: 0.76 µM·h
  AUC (uM * h) p.o.: 3.3 µM·h
  Cmax: 4.2 µM
  Tmax (h) p.o.: 0.5 h
[3]; 30 mg/kg
  t1/2 (h) p.o.: 3 h
[4]
  EC50: > 3000 nM
[5]
  EC50: 70 nM

## CC(=O)c1c(C)c2cnc(Nc3ccc(N4CCNCC4)cn3)nc2n(C2CCCC2)c1=O [PD0332991, palbociclib]
[6]
  cytotoxic / chemosensitizing effect in combination with various camptothecin derivatives (in words): low chemosensitizing activity

## CCN(CC)C1CCN(c2ccc(Nc3ncc4cc5n(c4n3)C3(CCCCC3)CNC5=O)nc2)C1 (stereo not shown) [UU]
CDK2/CyclinE
  Fold Selectivity (CDK2/CycE/CDK4): 542
CDK2/CyclinE; ATP 100 μM, 1 hr, read-out: CDK2/CycE IC50
  IC50: 3960 nM
HS68 cells; HS68 cells
  EC50: 300 nM
CDK4/CyclinD1
  IC50: 7.3 nM

## Cn1cnc2c(NCc3ccccc3)nc(NCCO)nc21 [olomoucine]
[6]
  cytotoxic effect in combination with topotecan (in words): synergistic cytotoxic effect
  cytotoxic / chemosensitizing effect in combination with various camptothecin derivatives (in words): synergistic cytotoxic effect

## CC[C@H](CO)Nc1nc(NCc2ccccc2)c2ncn(C(C)C)c2n1 [roscovitine]
[6]
  cytotoxic effect in combination with topotecan (in words): synergistic cytotoxic effect
  cytotoxic / chemosensitizing effect in combination with various camptothecin derivatives (in words): synergistic cytotoxic effect

## CC[C@@]1(O)C(=O)OCc2c1cc1n(c2=O)Cc2cc3c(CN(C)C)c(O)ccc3nc2-1 [topotecan, reference compound]
[7]; Compound T alone 100 mg/kg, topotecan 0.6 mg/kg, combination with each Compound T dose (100, 50 or 10 mg/kg), FIG. 16
  activity toward NCI-H69 xenografts / tumor volume (in words): active and reduced tumor volumes
[7]; [8]
  CR (tumor volume < 15 mm^3): 0
  LTS (individual tumor volume < volume endpoint at study time endpoint): 1
  MTTE ± SD (timepoint in days to reach designated tumor volume or time endpoint): 52 ± 7 days
  PR (%) (tumor volume ≥ 50% regression versus Day 0): 0%
  T-C (difference in days between MTTE of treatment and control groups): 34 days
  TFS (complete responder at study endpoint): 0
[7]; topotecan 0.6 mg/kg, with or without Compound T, FIG. 15
  survival versus vehicle or Compound T only (in words): survived significantly longer than mice treated with vehicle or Compound T only
